# Experimental data reported in patent US20220331348A1, “METHOD OF PREPARING PENTACYCLIC TRITERPENOID SAPONINS AND DRUG COMPOSITION” (CHINA PHARMACEUTICAL UNIVERSITY, priority 2019, published 2022).
# Marks after values point to notes of the source that are not given here.
# Columns and labels:
# AMPK in Huh-7 cells = assay: Activation activity on AMPK in Huh-7 cells (Western Blot); assay type: cell-based; conditions: 10 μM, 12 h, Western Blot gray scale, relative to DMSO = 1
# Method: The activation activity of a compound on AMPK in Huh-7 cells was detected by using Western Blot.
# Cell culture conditions: Huh-7 cells were cultured in an incubator with 5% CO2 at 37° C. in DMEM complete medium (containing 10% fetal calf serum and 1% streptomycin/penicillin).
# Antibody: anti-AMPK (CST, 2532S); anti-pAMPK (CST, 2535S).
# Western Blot experiment: the influence of the compound on phosphorylation level of the AMPK in the Huh-7 cells was detected: cells with more than 90% cells alive were taken for the experiment. In a 12-well plate, the Huh-7 cells were plated in the plate at 250000 cells per well, the plate was placed in the incubator with 5% CO2 at 37° C. for culture, an original culture medium was discarded after 12 h, a complete medium containing the pentacyclic triterpenoid saponin was added, a final concentration of subject pentacyclic triterpenoid saponin was set to be 10 μM, and an administration time was set to be 12 h. A positive control compound employs AICAR (100 μM), metformin (70 μM) or A-769662 (100 μM). Then proteins were extracted for Western Blot detection.
# Experimental result: a Western Blot experimental result was subjected to gray scale scanning, a p-AMPK/AMPK ratio of negative control DMSO was defined as 1, and a p-AMPK/AMPK ratio of the subject compound was a relative ratio of a negative control group. The larger the numerical value was, the stronger the activation activity of the AMPK of the compound was.
# [1] = system: high fat diet induced NASH model rats; assay: High fat diet (HFD) induced NASH rat model; assay type: in vivo; conditions: for Liver TC / Liver TG / Serum LDL-c / Serum TG: HFD induced NASH model rats; for Liver TC / Liver TG / Serum LDL-c / Serum TG / ALT / AST: n = 8; for ALT / AST: serum of HFD induced NASH model rats
# Method: Animal: 32 SD male rats of SPF level with 6 weeks old and 220 g were purchased from Beijing Vital River Laboratory Animal Technology Co., Ltd. All the animals maintained 12 h alternative circadian rhythm with free access to food.
# Reagent: the ginsenoside Ro (I) was purchased from Shanghai Boka Chemistry Technology Co., Ltd; obeticholic acid (OCA) was purchased from Jiangsu Vcare PharmaTech Co., Ltd; high fat diets were purchased from Research Diets (D12492, 60 kcal %); and standard feeds were purchased from Research Diets (D12450B, 10 kcal %).
# The rats were randomly divided into 4 groups based on the weight: a control group (CHOW), a high fat diet model group (HFD), a positive drug obeticholic acid (OCA, 5 mg/Kg) group (HFD+OCA) and a ginsenoside Ro (Ro for short, 5 mg/kg) group (HFD+Ro). The control group was fed with the standard feeds and drank water normally; and the rest groups were fed with the high fat diets, drank 10% aqueous sucrose solution for replacing the water and were modeled for 20 weeks.
# After 20 weeks, the control group and the high fat diet model group were given with a CMC-Na solution with the volume fraction of 0.5% intragastrically every day, the HFD+OCA group was given with the obeticholic acid (5 mg/Kg) intragastrically every day, and the HFD+Ro was given with the ginsenoside Ro (5 mg/Kg) intragastrically every day. Administration was conducted for 8 weeks, during which, the control group was given with the standard feeds and drank the water normally, and the rest three groups were given with the high fat diets and drank 10% aqueous sucrose solution. The rats in each group were weighed every day, weights, hairs, feces and activity conditions were carefully observed and recorded.
# The rats were deprived of food but not water for 12 h in advance; and the next morning, blood was taken from eye sockets, the rats were sacrificed, and livers were harvested. Right liver lobule tissues were fixed with 4% paraformaldehyde for HE stained slicing. A part of liver tissues were divided into 3 parts, which were snap-frozen in liquid nitrogen for subsequent detection of other indexes.
# Whole blood was left to still standing for 2 h at room temperature, centrifugation was conducted for 15 min at 3000 rpm, and a serum was collected. 100 Mg of liver tissues were taken and homogenized with 0.9 mL of precooled normal saline, a homogenate was centrifuged for 15 min at 4° C. and 3000 rpm, and a supernatant was taken. Both of the serum and the supernatant were sent to Pathologic Department of Hospital of Integrated Traditional Chinese and Western Medicine in Jiangsu Province for determination of levels of triglyceride (TG), total cholesterol (TC), low density lipoprotein cholesterin (LDL-c) and high density lipoprotein cholesterol (HDL-c) in the serum and levels of the TG and the TC in the supernatant of the homogenate of the liver tissues with the full-automatic biochemical analyzer.
# Pretreated tissues were sent to Google Biotechnology Co., Ltd for preparing HE stained slices and oil red stained slices.
# Liver tissues preserved at −80° C. were put in the liquid nitrogen, about 10 mg of the liver tissues were quickly dissected out, 500 μL of precooled tissue lysate was added, and the tissues were homogenized with a homogenizer and then left to lyse on ice for 30 min; and centrifugation was conducted for 15min at 4° C. and 12000 rpm, […] of a supernatant was sucked to a clean EP tube, […] of the supernatant was taken for BCA protein quantification, […] of 5*loading buffer was added in the rest protein supernatant for denaturing by boiling, SDS-PAGE electrophoresis was conducted subsequently, the proteins were transferred onto a PVDF membrane, then incubation and elution of a relevant antibody were conducted, and finally, a chemiluminescence apparatus was employed for imaging analysis.
# [2] = HFD NASH rats, 5 mg/Kg intragastrically every day, 8 weeks (FIG. 4)
# [3] = HFD NASH rats, 5 mg/Kg, 8 weeks, q-PCR (FIG. 6)
# [4] = HFD NASH rats, 5 mg/Kg, 8 weeks, q-PCR (FIG. 7)
# [5] = HFD NASH rats, summary in words
SMILES,pAMPK/AMPK ratio (AMPK in Huh-7 cells),"inflammatory responses of the livers [1, 5]","lipid accumulation, caused by the high fat diets, of the rat livers [1, 5]",Liver TC ([1]; 5 mg/Kg),Liver TG ([1]; 5 mg/Kg),Serum LDL-c ([1]; 5 mg/Kg),Serum TG ([1]; 5 mg/Kg),ALT ([1]; 5 mg/Kg),AST ([1]; 5 mg/Kg),also measured
"CC1(C)CC[C@]2(C(=O)O[C@@H]3O[C@H](CO)[C@@H](O)[C@H](O)[C@H]3O)CC[C@]3(C)C(=CC[C@@H]4[C@@]5(C)CC[C@H](O[C@@H]6O[C@H](C(=O)O)[C@@H](O)[C@H](O)[C@H]6O[C@@H]6O[C@H](CO)[C@@H](O)[C@H](O)[C@H]6O)C(C)(C)[C@@H]5CC[C@]43C)[C@@H]2C1 [(I), ginsenoside Ro]",2.39,inhibits,significantly lower,–,–,–,–,–,–,"level of the HDL-c in the serum [1, 2]: effectively lower; level of the LDL-c in the serum [1, 2]: effectively lower; level of the TC in the serum [1, 2]: effectively lower; contents of the TC in the livers ([1]; HFD NASH rats, 5 mg/Kg intragastrically every day, 8 weeks (FIG. 5)): significantly lowered; level of the TG in the serum ([1]; HFD NASH rats, 5 mg/Kg intragastrically every day, 8 weeks, vs HFD model group (FIG. 4)): significantly lower; level of the TG in the liver ([1]; HFD NASH rats, 5 mg/Kg intragastrically every day, 8 weeks, vs HFD model group (FIG. 5)): significantly lower; mRNA expression level of IL-6 in liver [1, 3]: significantly inhibit increase; mRNA expression level of IL-10 in liver [1, 3]: significantly inhibit increase; mRNA expression level of TNF-α in liver [1, 3]: significantly inhibit increase; mRNA expression level of TGF-β in liver [1, 4]: significantly inhibit increase; mRNA expression level of α-SMA in liver [1, 4]: significantly inhibit increase; liver fibrosis [1, 5]: inhibits"
"C[C@@H]1O[C@@H](O[C@H]2[C@H](O[C@H]3CC[C@@]4(C)[C@@H](CC[C@]5(C)[C@@H]4CC=C4[C@@H]6CC(C)(C)CC[C@]6(C(=O)O)CC[C@]45C)[C@]3(C)CO)OC[C@H](O)[C@@H]2O)[C@H](O)[C@H](O)[C@H]1O [(X), α-hederin]",3.33,–,–,–,–,–,–,–,–,–
"C[C@@H]1O[C@@H](O[C@H]2[C@H](O[C@H]3CC[C@@]4(C)[C@@H](CC[C@]5(C)[C@@H]4CC=C4[C@@H]6CC(C)(C)CC[C@]6(C(=O)O[C@@H]6O[C@H](CO[C@@H]7O[C@H](CO)[C@@H](O[C@@H]8O[C@@H](C)[C@H](O)[C@@H](O)[C@H]8O)[C@H](O)[C@H]7O)[C@@H](O)[C@H](O)[C@H]6O)CC[C@]45C)[C@]3(C)CO)OC[C@H](O)[C@@H]2O)[C@H](O)[C@H](O)[C@H]1O [(XI), hederacoside C]",1.95,–,–,–,–,–,–,–,–,–
"C[C@H]1O[C@@H](O[C@H]2CC[C@@]3(C)[C@@H](CC[C@]4(C)[C@@H]3C=C[C@]35OC[C@@]6(CCC(C)(C)C[C@H]63)[C@H](O)C[C@]54C)[C@]2(C)CO)[C@H](O)[C@@H](O[C@@H]2O[C@H](CO)[C@@H](O)[C@H](O)[C@H]2O)[C@H]1O [(VIII), saikosaponin D]",2.0,inhibit,effectively lower,0.509 ± 0.248** mmoL/gprot,1.173 ± 0.606*** mmoL/gprot,46.75 ± 7.35** mg/dL,19.66 ± 5.12* mg/dL,67.74 ± 8.29** U/L,121.43 ± 9.28** U/L,–
"C[C@@H]1CC[C@]2(C(=O)O)CC[C@]3(C)C(=CC[C@@H]4[C@@]5(C)CC[C@H](O[C@@H]6OC[C@H](O)[C@H](O)[C@H]6O)C(C)(C)[C@@H]5CC[C@]43C)[C@@H]2[C@]1(C)O [(XIII), ziyuglycoside II]",2.51,inhibit,effectively lower,0.503 ± 0.256** mmoL/gprot,1.299 ± 0.387** mmoL/gprot,45.36 ± 5.37** mg/dL,19.41 ± 4.37* mg/dL,69.28 ± 12.33** U/L,122.16 ± 17.38** U/L,–
"C[C@H]1O[C@@H](O[C@H]2CC[C@@]3(C)[C@@H](CC[C@]4(C)[C@@H]3C=C[C@]35OC[C@@]6(CCC(C)(C)C[C@H]63)[C@@H](O)C[C@]54C)[C@]2(C)CO)[C@H](O)[C@@H](O[C@@H]2O[C@H](CO)[C@@H](O)[C@H](O)[C@H]2O)[C@H]1O [(VII), saikosaponin A]",1.76,inhibit,effectively lower,0.518 ± 0.133** mmoL/gprot,1.268 ± 0.294** mmoL/gprot,47.06 ± 7.83* mg/dL,20.43 ± 4.04* mg/dL,71.36 ± 9.26* U/L,115.24 ± 19.23*** U/L,–
"CC1(C)CC[C@]2(C(=O)O[C@@H]3O[C@H](CO[C@@H]4O[C@H](CO)[C@@H](O)[C@H](O)[C@H]4O)[C@@H](O)[C@H](O)[C@H]3O)CC[C@]3(C)C(=CC[C@@H]4[C@@]5(C)CC[C@H](O[C@@H]6OC[C@H](O)[C@H](O)[C@H]6O)[C@@](C)(CO)[C@@H]5CC[C@]43C)[C@@H]2C1 [(II), asperosaponin VI]",2.90,–,–,–,–,–,–,–,–,–
"C[C@@H]1CC[C@]2(C(=O)O[C@@H]3O[C@H](CO)[C@@H](O)[C@H](O)[C@H]3O)CC[C@]3(C)C(=CC[C@@H]4[C@@]5(C)CC[C@H](O[C@@H]6OC[C@H](O)[C@H](O)[C@H]6O)C(C)(C)[C@@H]5CC[C@]43C)[C@@H]2[C@]1(C)O [(XII), ziyuglycoside I]",2.45,inhibit,effectively lower,0.547 ± 0.272* mmoL/gprot,1.302 ± 0.443** mmoL/gprot,48.52 ± 6.98* mg/dL,18.32 ± 2.51** mg/dL,74.03 ± 12.38* U/L,120.91 ± 19.32** U/L,–
